Test results reported in ChEMBL document CHEMBL3881525, “Analogs of dehydrophenylahistins and their therapeutic use” (2007).
Values after ≈ are worked out from the molar mass of the structure shown. Active and inactive are the calls of the source. The calls are words filed in the database; no cut-off is given here.

Key:
[1] = Antitumor activity against human HT-29 cells xenografted in nude mouse assessed as tumor growth inhibition at 30 mg/kg, ip administered every third day for 5 days in presence of CPT-11 relative to control; format: functional; details: HT-29, ip, 120 h, read-out: TGI
[2] = test system: MES-SA; experiment: Ratio of IC50 for taxol-sensitive human […] to IC50 for taxol-sensitive human […] pretreated with p-gp inhibitor cyclosporinA followed by compound addition; format: functional
[3] = test system: B16-F10; experiment: Ratio of IC50 for human CCD-27sk cells to IC50 for mouse B16F10 cells
[4] = Cytotoxicity against human NCI-H292 cells assessed as reduction in cell viability measured after 48 hrs by resazurin dye-based fluorometric analysis relative to control; format: functional
[5] = test system: HUVEC; experiment: Induction of monolayer permeability in HUVEC assessed as colchicin transport at 2 uM measured up to 1 hr; format: functional, cell-based; details: Homo sapiens
[6] = test system: MCF7; experiment: Potentiation of taxotere-induced antitumor activity against human MCF7 cells xenografted in nude mouse assessed as tumor growth inhibition at 7.5 mg/kg, ip qd for 4 days measured on day 7; format: functional, organism-based
[7] = Cytotoxicity against human Jurkat cells; format: functional, cell-based
[8] = Cytotoxicity against mouse B16F10 cells assessed as reduction in cell viability measured after 48 hrs by resazurin dye-based fluorometric analysis relative to control; format: functional, B16-F10
[9] = Antifungal activity against Candida glabrata measured after 48 hrs by broth dilution method; format: functional; details: Nakaseomyces glabratus
[10] = Cytotoxicity against human NCI-H292 cells assessed as reduction in cell viability measured after 48 hrs by resazurin dye-based fluorometric analysis; format: functional; details: NCI-H292, 48 h
[11] = test system: HL-60; experiment: Ratio of IC50 for human mitoxantrone-sensitive HL60 cells to IC50 for human mitoxantrone-resistant HL60/MX2 cells; format: functional
[12] = test system: Aspergillus fumigatus; experiment: Antifungal activity against Aspergillus fumigatus isolate 1 measured after 48 hrs by broth dilution method; format: functional; details: isolate 1, 48 h
[13] = test system: Candida albicans; experiment: Antifungal activity against Candida albicans ATCC 10231 measured after 48 hrs by broth dilution method; format: functional; details: ATCC 10231, 48 h
[14] = Cytotoxicity against human PC3 cells assessed as reduction in cell viability measured after 48 hrs by resazurin dye-based fluorometric analysis relative to control; format: functional, PC-3; parameters: concentration or dose not given beside the values
[15] = Antiproliferative activity against human mitoxantrone-resistant HL60/MX2 cells; format: functional, cell-based; details: HL-60
[16] = Antiproliferative activity against taxol-resistant human MES-SA/Dx5 cells expressing MDR1 mRNA and P-gp pretreated with p-gp inhibitor cyclosporinA followed by compound addition; format: functional, cell-based
[17] = Cytotoxicity against human MDA-MB-231 cells assessed as reduction in cell viability measured after 48 hrs by resazurin dye-based fluorometric analysis; format: functional; details: MDA-MB-231, 48 h
[18] = Cytotoxicity against human OVCAR3 cells assessed as reduction in cell viability measured after 48 hrs by resazurin dye-based fluorometric analysis relative to control; format: functional, OVCAR-3
[19] = test system: Candida albicans; experiment: Antifungal activity against Candida albicans 90028 measured after 48 hrs by broth dilution method; format: functional; details: Candida albicans, 90028, 48 h
[20] = Cytotoxicity against human HT-29 cells assessed as reduction in cell viability measured after 48 hrs by resazurin dye-based fluorometric analysis; format: functional; details: Homo sapiens, HT-29, 48 h
[21] = test system: NCI-H292; experiment: Ratio of IC50 for human CCD-27sk cells to IC50 for human NCI-H292 cells
[22] = Antiproliferative activity against taxol-resistant human MES-SA/Dx5 cells expressing MDR1 mRNA and P-gp; format: functional, cell-based
[23] = test system: MDA-MB-231; experiment: Ratio of IC50 for human CCD-27sk cells to IC50 for human MDA-MB-231 cells
[24] = Cytotoxicity against human OVCAR3 cells assessed as reduction in cell viability measured after 48 hrs by resazurin dye-based fluorometric analysis; format: functional; details: OVCAR-3, 48 h
[25] = Antiproliferative activity against taxol-sensitive human MES-SA cells pretreated with p-gp inhibitor cyclosporinA followed by compound addition; format: functional, cell-based
[26] = Cytotoxicity against human HT-29 cells assessed as reduction in cell viability measured after 48 hrs by resazurin dye-based fluorometric analysis relative to control; format: functional
[27] = Cytotoxicity against human PC3 cells assessed as reduction in cell viability measured after 48 hrs by resazurin dye-based fluorometric analysis; format: functional; details: PC-3, 48 h
[28] = test system: Aspergillus fumigatus; experiment: Fungicidal activity against Aspergillus fumigatus isolate 2 measured after 48 hrs by broth dilution method; format: functional; details: isolate 2, 48 h
[29] = Cytotoxicity against mouse B16F10 cells assessed as reduction in cell viability measured after 48 hrs by resazurin dye-based fluorometric analysis; format: functional; details: B16-F10, 48 h
[30] = Antiproliferative activity against human mitoxantrone-sensitive HL60 cells; format: functional, cell-based; details: HL-60
[31] = test system: HT-29; experiment: Ratio of IC50 for human CCD-27sk cells to IC50 for human HT-29 cells
[32] = test system: Jurkat; experiment: Induction of apoptosis in human Jurkat cells assessed as caspase3 activation; format: functional, cell-based
[33] = test system: PC-3; experiment: Ratio of IC50 for human CCD-27sk cells to IC50 for human PC3 cells
[34] = test system: MES-SA/Dx5; experiment: Ratio of IC50 for taxol-resistant human MES-SA/Dx5 cells expressing MDR1 mRNA and P-gp to IC50 for taxol-resistant human MES-SA/Dx5 cells expressing MDR1 mRNA and P-gp pretreated with p-gp inhibitor cyclosporinA followed by compound addition; format: functional
[35] = Cytotoxicity against human CCD-27Sk cells assessed as reduction in cell viability measured after 48 hrs by resazurin dye-based fluorometric analysis relative to control; details: read-out: INH
[36] = Antiproliferative activity against taxol-sensitive human MES-SA cells […]; format: functional, cell-based
[37] = test system: Aspergillus fumigatus; experiment: Antifungal activity against Aspergillus fumigatus isolate 2 measured after 48 hrs by broth dilution method; format: functional; details: isolate 2, 48 h
[38] = Cytotoxicity against human CCD-27Sk cells assessed as reduction in cell viability measured after 48 hrs by resazurin dye-based fluorometric analysis
[39] = test system: HeLa; experiment: Effect on cell cycle progression in human HeLa cells assessed as reduction in 2N cells at 200 nM; format: functional, cell-based
[40] = test system: MES-SA; experiment: Ratio of IC50 for taxol-sensitive human […] to IC50 for taxol-resistant human MES-SA/DX5 cells expressing MDR1 mRNA and P-gp; format: functional
[41] = Antiproliferative activity against human taxol-sensitive MCF7 cells; format: functional, cell-based
[42] = test system: HeLa; experiment: Effect on cell cycle progression in human HeLa cells assessed as […] cells at 200 nM; format: functional, cell-based
[43] = test system: MES-SA; experiment: Ratio of EC50 for taxol-resistant human MES-SA/DX5 cells expressing MDR1 mRNA and P-gp to EC50 for taxol-sensitive human MES-SA cells; format: functional
[44] = Antitumor activity against mouse B16F10 cells allografted in nude mouse assessed as mean growth inhibition at 10 mg/kg, iv qd for 5 days relative to control; format: functional, B16-F10; parameters: scale not given: the % may be the effect or the level left
[45] = Antitumor activity against human MDA-MB-231 cells xenografted in nude mouse assessed as tumor growth inhibition at 7.5 mg/kg, ip qd for 5 days relative to control; format: functional; details: MDA-MB-231, ip, 120 h, read-out: TGI
[46] = test system: MCF7; experiment: Ratio of IC50 for human taxol-sensitive MCF7 cells to IC50 for human taxol-resistant MCF7/ADR cells; format: functional
[47] = Antitumor activity against human DU145 cells xenografted in nude mouse assessed as tumor growth inhibition at […], iv administered every third day measured on day 28 relative to control; format: functional; details: DU-145, iv, 672 h, read-out: TGI
[48] = Antitumor activity against human A549 cells xenografted in nude mouse assessed as tumor growth inhibition at […], ip qd for 5 days relative to control; format: functional; details: 120 h, read-out: TGI
[49] = Antitumor activity against human A549 cells xenografted in nude mouse assessed as tumor growth inhibition at 7.5 mg/kg, ip qd for 5 days relative to control; format: functional; details: 120 h, read-out: TGI
[50] = Antitumor activity against human MCF7 cells xenografted in nude mouse assessed as tumor growth inhibition at 7.5 mg/kg, ip qd for 5 days relative to control; format: functional; details: 120 h, read-out: TGI
[51] = test system: MCF7; experiment: (§1) Antimitotic activity in human MCF7 cells assessed as bipolar cells with uncompressed chromosomes at mitotic block IC50 measured after 20 hrs by immunofluorescence analysis relative to control; format: functional
[52] = as §1; format: functional
[53] = test system: MCF7; experiment: Antimitotic activity in human MCF7 cells assessed as mitotic index measured after 20 hrs by DAPI-staining based fluorescence microscopic analysis; format: functional, cell-based
[54] = test system: MCF7; experiment: Antimitotic activity in human MCF7 cells assessed as decrease in microtubule polymer formation measured after 20 hrs by immunofluorescence analysis relative to control; format: functional, cell-based
[55] = test system: MCF7; experiment: Antimitotic activity in human MCF7 cells assessed as microtubule polymer at twice mitotic block IC50 measured after 20 hrs by immunofluorescence analysis relative to control; format: functional, cell-based
[56] = Drug level assessed as human hepatic cytochrome P450-mediated compound formation treated with (+/-)phenylahistin; format: ADME

CC(C)(C)c1[nH]cnc1/C=C1\NC(=O)C(Cc2ccccc2)NC1=O (centres undefined)
inhibition in vivo at 30 mg/kg [1]: 77.7% | Ratio IC50 [2]: 1.3 | Ratio IC50 [3]: >20 - 100 | inhibition (INH) [4]: 65% | Activity [5]: Active | TGI [6]: Active | IC50 [7]: 165 nM | inhibition (INH) [8]: 74% | MIC [9]: > 32 µg/mL | EC50 [10]: 384 nM | Ratio IC50 [11]: 0.69 | MIC [12]: > 16 µg/mL | MIC [13]: > 32 µg/mL | Activity [14]: 59.5% | EC50 [15]: 175 nM | IC50 [16]: 622 nM | EC50 [17]: 387 nM | inhibition (INH) [18]: 37% | MIC [19]: > 32 µg/mL | EC50 [20]: 255 to 420 nM | Ratio IC50 [21]: >20 - 100 | IC50 [22]: 694 to 835 nM | Ratio IC50 [23]: >20 - 100 | EC50 [24]: > 20000 nM | IC50 [25]: 27.4 nM | Activity [26]: 88% | EC50 [27]: 174 nM | MFC [28]: 0.125 µg/mL (≈ 0.369 µM) | EC50 [29]: 736 nM | EC50 [30]: 255 nM | Ratio IC50 [31]: >20 - 100 | Activity [32]: Dose-dependent effect | Ratio IC50 [33]: >20 - 100 | Ratio IC50 [34]: 0.9 | cytotoxicity at 48 h [35]: 45% | EC50 [36]: 122 to 144 nM | MIC [37]: < 0.03 µg/mL | EC50 [38]: > 20000 nM

CC(=O)O[C@H]1C(=O)[C@@]2(C)[C@H]([C@H](OC(=O)c3ccccc3)[C@]3(O)C[C@H](OC(=O)[C@H](O)[C@@H](NC(=O)c4ccccc4)c4ccccc4)C(C)=C1C3(C)C)[C@]1(OC(C)=O)CO[C@@H]1C[C@@H]2O [PACLITAXEL]
Ratio IC50 [2]: 0.4 - 0.6 | Activity [39]: Active | Ratio IC50 [40]: >8 - 3000 | IC50 [16]: 2 to 40 nM | IC50 [41]: 2.6 nM | Activity [42]: Active | EC50 [20]: 16.2 nM | IC50 [22]: 100 to 24000 nM | Ratio EC50 [43]: 417 | Activity [44]: 35% | EC50 [25]: 2.8 to 18 nM | inhibition in vivo at 7.5 mg/kg [45]: 53% | Ratio IC50 [46]: >38 | EC50 [36]: 4.8 to 13 nM

CC(=O)O[C@@]12CO[C@@H]1C[C@H](O)[C@@]1(C)C(=O)[C@H](O)C3=C(C)[C@@H](OC(=O)[C@H](O)[C@@H](NC(=O)OC(C)(C)C)c4ccccc4)C[C@@](O)([C@@H](OC(=O)c4ccccc4)[C@H]21)C3(C)C [DOCETAXEL ANHYDROUS]
inhibition in vivo at […] [47]: 44.8% | TGI [6]: Active | inhibition in vivo at […] [48]: 26.1% | inhibition in vivo at 7.5 mg/kg [49]: 26% | inhibition in vivo at 7.5 mg/kg [50]: 12 to 58%

COc1cc2c(c(OC)c1OC)-c1ccc(OC)c(=O)cc1[C@@H](NC(C)=O)CC2 [COLCHICINE]
MIC [9]: > 128 µg/mL | Activity [51]: Active | Activity [52]: 50% | inhibition [53]: Dose-dependent effect | Activity [54]: Dose-dependent effect | Activity [55]: Active

CC(C)(c1[nH]cnc1/C=C1\NC(=O)[C@H](Cc2ccccc2)NC1=O)C1CO1 (stereo in doubt)
Drug metabolism [56]: Metabolite_Detected
